The nature of data set [1]: relative permittivity at various frequencies (dimensionless). As to conditions: 99 kPa, Liquid, Frequency=2 MHz, Parallel plate capacitor.
Data set [2] in a line: refractive index (Na D-line) (dimensionless); xn = mol fraction of the nth substance listed. As to conditions: 99 kPa, Liquid, Abbe refractometer, x1 = 1.
The nature of data set [3]: relative permittivity at various frequencies (dimensionless); xn = mol fraction of the nth substance listed. The following applies: 99 kPa, Liquid, Frequency=2 MHz, Parallel plate capacitor, x1 = 1.
Data set [4] is described as follows: refractive index (Na D-line) (dimensionless). As to conditions: 298.15 K; 101.33 kPa; Liquid; Abbe refractometer.

Numbers after ± are expanded uncertainties.

As for `CC(C)CCl` [1-chloro-2-methylpropane], the relative permittivity in data set [1] (283.15 K) was 7.472 ± 0.075; in data set [1] (298.15 K) it was 7.074 ± 0.071; in data set [1] (313.15 K), 6.657 ± 0.067.

Consider `CCCCCl` [1-chlorobutane], for which the relative permittivity in data set [1] (283.15 K) is recorded as 7.552 ± 0.076; in data set [1] (298.15 K) it was 7.157 ± 0.072; in data set [1] (313.15 K), 6.757 ± 0.068.

Take `CC(C)(C)Cl` [2-chloro-2-methylpropane]: the relative permittivity in data set [1] (283.15 K) was 10.429 ± 0.1; in data set [1] (298.15 K), 9.67 ± 0.097; in data set [1] (313.15 K) it was 8.952 ± 0.09.

Take `CCC(C)Cl` (configuration not stated) [2-chlorobutane]: the relative permittivity is 9.323 ± 0.093 in data set [1] (283.15 K), 8.652 ± 0.087 in data set [1] (298.15 K) and 8.07 ± 0.081 in data set [1] (313.15 K).

As to `CCCCCCC` [heptane], the relative permittivity in data set [1] (283.15 K) is given as 1.943 ± 0.019; in data set [1] (298.15 K), 1.923 ± 0.019; in data set [1] (313.15 K), 1.902 ± 0.019.

What is called refractive index is the speed of light in vacuum divided by its phase velocity in the sample. On to `CCCCCCC` [heptane] + CC(C)(C)Cl, for which the figures for the refractive index in data set [2] (283.15 K), in data set [2] (298.15 K) and in data set [2] (313.15 K) were 1.3929 ± 0.00031, 1.3852 ± 0.00031 and 1.37735 ± 0.00031, respectively. Also, the relative permittivity is 1.943 ± 0.019 in data set [3] (283.15 K), 1.923 ± 0.019 in data set [3] (298.15 K) and 1.902 ± 0.019 in data set [3] (313.15 K).

In the case of `CCCCCCC` [heptane] + CC(C)CCl, the results for the refractive index in data set [2] (283.15 K), in data set [2] (298.15 K) and in data set [2] (313.15 K) were 1.3929 ± 0.00031, 1.3852 ± 0.00031 and 1.37735 ± 0.00031, respectively. Further, the relative permittivity in data set [3] (283.15 K) was 1.943 ± 0.019; in data set [3] (298.15 K), 1.923 ± 0.019; in data set [3] (313.15 K) it was 1.902 ± 0.019.

For the compound `CCCCCCC` [heptane] + CCC(C)Cl, the refractive index is on record as 1.3929 ± 0.00031 in data set [2] (283.15 K), 1.3852 ± 0.00031 in data set [2] (298.15 K) and 1.37735 ± 0.00031 in data set [2] (313.15 K). The relative permittivity in data set [3] (283.15 K) is 1.943 ± 0.019; in data set [3] (298.15 K), 1.923 ± 0.019; in data set [3] (313.15 K) it was 1.902 ± 0.019.

With `CCCCCCC` [heptane] + CCCCCl, the refractive index in data set [2] (283.15 K) came to 1.3929 ± 0.00031; in data set [2] (298.15 K), 1.3852 ± 0.00031; in data set [2] (313.15 K) it was 1.37735 ± 0.00031. The figures for the relative permittivity in data set [3] (283.15 K), in data set [3] (298.15 K) and in data set [3] (313.15 K) were 1.943 ± 0.019, 1.923 ± 0.019 and 1.902 ± 0.019, respectively.

On to `CCCCCC` [hexane], for which, in data set [4], the refractive index was found to be 1.37223 ± 0.00031. Further, the relative permittivity is 1.905 ± 0.019 in data set [1] (283.15 K), 1.892 ± 0.019 in data set [1] (298.15 K) and 1.873 ± 0.019 in data set [1] (313.15 K).

With `CCCCCC` [hexane] + CC(C)(C)Cl, the values for the refractive index in data set [2] (283.15 K), in data set [2] (298.15 K) and in data set [2] (313.15 K) were 1.3805 ± 0.00031, 1.37223 ± 0.00031 and 1.36391 ± 0.00031, respectively. Moreover, the results for the relative permittivity in data set [3] (283.15 K), in data set [3] (298.15 K) and in data set [3] (313.15 K) were 1.905 ± 0.019, 1.892 ± 0.019 and 1.873 ± 0.019, respectively.

For `CCCCCC` [hexane] + CC(C)CCl, the refractive index in data set [2] (283.15 K) is recorded as 1.3805 ± 0.00031; in data set [2] (298.15 K), 1.37223 ± 0.00031; in data set [2] (313.15 K), 1.36391 ± 0.00031. For the same compound, the relative permittivity in data set [3] (283.15 K) turned out to be 1.905 ± 0.019; in data set [3] (298.15 K) it was 1.892 ± 0.019; in data set [3] (313.15 K) it was 1.873 ± 0.019.

As for `CCCCCC` [hexane] + CCC(C)Cl, the values for the refractive index in data set [2] (283.15 K), in data set [2] (298.15 K) and in data set [2] (313.15 K) were 1.3805 ± 0.00031, 1.37223 ± 0.00031 and 1.36391 ± 0.00031, respectively. In addition, the values for the relative permittivity in data set [3] (283.15 K), in data set [3] (298.15 K) and in data set [3] (313.15 K) were 1.905 ± 0.019, 1.892 ± 0.019 and 1.873 ± 0.019, respectively.

For `CCCCCC` [hexane] + CCCCCl, the figures for the refractive index in data set [2] (283.15 K), in data set [2] (298.15 K) and in data set [2] (313.15 K) were 1.3805 ± 0.00031, 1.37223 ± 0.00031 and 1.36391 ± 0.00031, respectively. For the same compound, the relative permittivity in data set [3] (283.15 K) amounted to 1.905 ± 0.019; in data set [3] (298.15 K), 1.892 ± 0.019; in data set [3] (313.15 K), 1.873 ± 0.019.

For the origin of these results see the NIST ThermoML archive (doi:10.1016/j.jct.2015.03.001).
